{
  "source": "patent US6462226B1",
  "about": "“Process for the preparation of 4,5-diamino shikimic acid derivatives” (priority 1999, dated 2002)",
  "origin": "cited, not measured here",
  "test_system": "viral neuraminidase",
  "conditions": "J. C. Rohloff et al., J.Org.Chem. 63, 1998, 4545-4550; WO 98/07685",
  "data": [
    {"molecule": "CCOC(=O)C1=C[C@@H](OC(CC)CC)[C@H](NC(C)=O)[C@@H](N)C1", "note": "[Example 1, Ethyl (3R, 4R, 5S)-4-acetamido-5-amino-3-(1-ethylpropoxy)-1-cyclohexene-1-carboxylate]", "values": [
      {"measurement": "inhibition of viral neuraminidase", "result": "potent inhibitors"}
    ]}
  ]
}
